# Assay results: patent US9587035B2, “Assay for benzylpiperazine and metabolites” (Randox Laboratories Limited, priority 2012, dated 2017)
# Where a name gives a salt, the structure may show the parent alone.
# How the values were obtained:
# [1] = system: polyclonal antibodies (antiserum raised to Immunogen II), detecting agent Hapten 1-HRP; assay: Biochip competitive immunoassay (antibody characterisation, cross-reactivity); format: binding, sheep; details: for % Cross-reactivity: CR based on 100% for 1-benzylpiperazine, detecting agent derived from Hapten-1, % CR = IC50 1-benzylpiperazine/IC50 CR x 100; for IC50: detecting agent derived from Hapten-1, competitive assay format
# Method: Pre-immunisation blood samples were collected from 16-month-old female Suffolk sheep. The immunisation mixture was prepared by adding 2 mg of immunogen prepared in PBS at a ratio of 50% lmmunogen/PBS with 50% Freund's Complete adjuvant (Sigma, Product Number—F5881) and emulsifying the mixture to prepare the final product for immunisation. On Day 0, each sheep was immunized intramuscularly with 1 ml of the mixture described above, with 2-[4-(piperazin-1-yl-methyl)phenoxy]acetic acid conjugated to a carrier protein bovine thyroglobulin (BTG) (as in example 6 above). Subsequent boosts (a total of 20 boosts) were administered intramuscularly to each sheep every 30 days. Freund's complete adjuvant (Sigma, Product Number—F5881) was used for primary immunizations and Freund's incomplete adjuvant (Sigma product Number—F5506) was used for all subsequent injections. Routine bleeds were taken between boosts to monitor the antibody titre and sensitivity, using hapten 1 conjugated to Horseradish peroxidase in a competitive ELISA, testing cross reactivity to 1-Benzylpiperazine and 4-OH benzylpiperazine.
# Once the antibody titres were assessed as meeting the required performance criteria i.e. there was no significant increase in antibody titre and a plateau had been reached in the % displacement profile, antibodies were then evaluated by competitive immunoassay. They were first immobilized on a biochip platform (9 mm×9 mm) (Randox Laboratories Ltd.), which was the vessel for the immunoreactions. The semi-automated bench top analyser Evidence Investigator was used (EV3602, Randox Laboratories Ltd., Crumlin, UK, patents-EP98307706, EP98307732, EP0902394, EP1227311, EP1434995 and EP1354623). The assay principle was based on competition for binding sites of the polyclonal antibodies between free antigen (1-Benzylpiperazine and other cross-reactants) and labelled conjugate (Hapten 1-HRP, prepared as in example 6). Assay dilutent (155 μl), calibrator/1-benzylpiperazine or potential cross-reactant (25 μl) followed by Hapten 1-HRP conjugate (120 μl) were added to the appropriate biochip. The biochips were then incubated for 30 minutes at 30° C. on a thermo-shaker set at 370 rpm. The biochips were then subjected to 2 quick wash cycles using the wash buffer provided, followed by 4×2 minute wash cycles. 250 μl of signal (1:1 luminol+peroxide, v/v) was then added to each biochip, and after 2 minutes the biochip carrier was imaged in the Evidence Investigator analyser. The system incorporates dedicated software to automatically process, report and archive the data generated (details can be found in FitzGerald, S. P. et al, Clin. Chem. 51(7); 1165-1176; 2005).
# Calibration curves were generated using the Biochip based immunoassay as described above. The IC50 was calculated from the graphs by taking 50% of the signal from the zero calibrator and reading the corresponding value on the x-axis, equivalent to the concentration of unlabelled ligand which reduces specific binding of labelled ligand by 50%. Specificity was also tested against a range of related analytes (Table 1). Cross-reactivity was calculated according to the following formula: % CR=IC50, 1-benzylpiperazine/IC50, CR×100 where % CR is the percentage cross-reactivity, IC50, 1-benzylpiperazine is the concentration of 1-benzylpiperazine that causes 50% displacement of signal and IC50, CR is the concentration of 1-benzylpiperazine/metabolites/structurally-related molecules that causes 50% displacement of signal.
# [2] = Wistar rats, cited from earlier work; for % of the dose excreted as this molecule: BZP dosed; for detectability in urine post-dosing / time of peak urinary level post-dosing: urine
# [3] = system: MDMA immunoassay; details: commercial MDMA immunoassay; cited from earlier work
# [4] = cited from earlier work
Structure (SMILES),% Cross-reactivity [1],IC50 [1],further results
"Clc1cccc(N2CCNCC2)c1 [mCPP HCl, 1-(3-chlorophenyl)piperazine]",0.6%,233.3 ng/mL,–
"Oc1cccc(CN2CCNCC2)c1 [3-(Piperazin-1ylmethyl)phenol diHCl, 3-(Piperazin-1ylmethyl)phenol]",123.7%,1.1 ng/mL,% of the dose excreted as this molecule [2]: 2%; detectability in urine post-dosing [2]: detectable up to 48hrs; time of peak urinary level post-dosing [2]: around 8 hrs
"c1ccc(CN2CCNCC2)cc1 [1-Benzylpiperazine, 1-benzylpiperazine]",100.0%,1.4 ng/mL,"concentration needed for a positive result [3]: 3,000,000 ng/mL; % of the dose excreted as this molecule [2]: 6.7%; detectability in urine post-dosing [2]: undetectable at 48hrs; time of peak urinary level post-dosing [2]: around 4 hrs; elimination half life ([4]; in vivo): 5 to 6 h; time at which elimination is complete ([4]; in vivo): around 44 hrs; time to detection in plasma ([4]; oral dose of BZP hydrochloride): ≤ 30 min"
"Cc1cccc(CN2CCNCC2)c1 [N-(3-Methylbenzyl)piperazine diHCl, N-(3-Methylbenzyl)piperazine]",52.9%,2.6 ng/mL,–
c1ccc(N2CCNCC2)cc1 [1-Phenylpiperazine],3.4%,41.2 ng/mL,–
c1cc2c(cc1CN1CCNCC1)OCO2 [1-Piperonylpiperazine],101.5%,1.4 ng/mL,–
Cc1ccc(N2CCNCC2)cc1 [1-(4-Methylphenyl)piperazine],1.3%,107.7 ng/mL,–
FC(F)(F)c1cccc(N2CCNCC2)c1 [1-(3-Trifluoromethylphenyl)piperazine],1.9%,73.7 ng/mL,–
Oc1cccc(N2CCNCC2)c1 [1-(3-Hydroxyphenyl)piperazine],1.0%,140 ng/mL,–
"Oc1ccc(CN2CCNCC2)cc1 [4-OH Benzylpiperazine, 4-OH benzylpiperazine]",172.1%,0.8 ng/mL,% of the dose excreted as this molecule [2]: 25%; detectability in urine post-dosing [2]: detectable up to 48hrs; time of peak urinary level post-dosing [2]: around 8 hrs
"COc1ccccc1N1CCNCC1 [1-(2-Methoxyphenyl)piperazine diHCl, 1-(2-Methoxyphenyl)piperazine]",3.2%,43.8 ng/mL,–
Cc1cccc(N2CCNCC2)c1 [1-(3-Methylphenyl)piperazine],3.9%,35.9 ng/mL,–
